pEC50: −log10 of the molar value.
Molecular target: human FXR (NR1H4) (Homo sapiens (Human), UniProt Q96RI1)
Test: Human FXR (NR1H4) Assay (Gal4 promoter driven luciferase reporter, Indigo Bioscience kit);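 as to Efficacy (%): 100% equals the efficacy of CDCA; efficacy normalized to CDCA set as 100%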
Type: cell-based
Conditions: for pEC50: Human FXR (NR1H4) Assay, potency ranges; for Emax: read-out: Efficacy (%)
Outline: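 CHO reporter cells expressing human FXR with an FXR-responsive luciferase reporter, treated with compound doses at 0.2% DMSO. Incubation lasted 22 h at 37 °C before luciferase detection reagent was added. Luminescence was then read.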

Sequence of human FXR (NR1H4) (Q96RI1 whole entry, the tested form may be a part): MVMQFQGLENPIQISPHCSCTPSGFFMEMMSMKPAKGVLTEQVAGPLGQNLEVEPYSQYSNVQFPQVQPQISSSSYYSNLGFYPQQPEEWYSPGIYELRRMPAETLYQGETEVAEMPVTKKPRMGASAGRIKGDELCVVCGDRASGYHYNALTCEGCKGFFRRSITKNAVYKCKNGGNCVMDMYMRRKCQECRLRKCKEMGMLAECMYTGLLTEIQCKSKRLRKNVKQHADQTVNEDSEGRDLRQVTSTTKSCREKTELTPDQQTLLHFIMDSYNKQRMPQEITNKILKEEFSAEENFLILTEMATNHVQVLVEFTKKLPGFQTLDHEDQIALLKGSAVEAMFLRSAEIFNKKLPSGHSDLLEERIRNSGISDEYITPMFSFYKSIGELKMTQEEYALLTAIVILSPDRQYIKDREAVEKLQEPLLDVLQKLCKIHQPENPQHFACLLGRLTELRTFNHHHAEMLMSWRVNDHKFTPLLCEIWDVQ

CC[C@H]1[C@@H](O)[C@@H]2[C@H](CC[C@]3(C)[C@@H]([C@H](C)COC(=O)NS(=O)(=O)c4ccc(-n5cncn5)cc4)CC[C@@H]23)[C@@]2(C)CC[C@@H](O)C[C@@H]12 [Example 44-f]
pEC50: > 7.00 | Emax: 216%

CC[C@H]1[C@@H](O)[C@@H]2[C@H](CC[C@]3(C)[C@@H]([C@H](C)CCOC(=O)Nc4ccccc4)CC[C@@H]23)[C@@]2(C)CC[C@@H](O)C[C@@H]12 [Example 191]
pEC50: 5.00 to 6.00 | Emax: 330%

CC[C@H]1[C@@H](O)[C@@H]2[C@H](CC[C@]3(C)[C@@H]([C@H](C)COC(=O)NS(=O)(=O)c4cccc(O)c4)CC[C@@H]23)[C@@]2(C)CC[C@@H](O)C[C@@H]12 [Example 38]
pEC50: 6.00 to 7.00 | Emax: 203%

CC[C@H]1[C@@H](O)[C@@H]2[C@H](CC[C@]3(C)[C@@H]([C@H](C)CCOC(=O)NS(=O)(=O)C(C)C)CC[C@@H]23)[C@@]2(C)CC[C@@H](O)C[C@@H]12 [Example 75]
pEC50: > 7.00 | Emax: 386%

CC[C@H]1[C@@H](O)[C@@H]2[C@H](CC[C@]3(C)[C@@H]([C@H](C)CCOC(=O)N[C@H](C)CCO)CC[C@@H]23)[C@@]2(C)CC[C@@H](O)C[C@@H]12 [Example 172]
pEC50: 6.00 to 7.00 | Emax: 201%

CC[C@H]1[C@@H](O)[C@@H]2[C@H](CC[C@]3(C)[C@@H]([C@H](C)CCOC(=O)NS(=O)(=O)c4ccc(OCC(F)(F)F)cc4)CC[C@@H]23)[C@@]2(C)CC[C@@H](O)C[C@@H]12 [Example 101]
pEC50: 6.00 to 7.00 | Emax: 289%

CC[C@H]1[C@@H](O)[C@@H]2[C@H](CC[C@]3(C)[C@@H]([C@H](C)CCCOC(=O)N(C)C)CC[C@@H]23)[C@@]2(C)CC[C@@H](O)C[C@@H]12 [Example 128]
pEC50: 5.00 to 6.00 | Emax: 138%

CC[C@H]1[C@@H](O)[C@@H]2[C@H](CC[C@]3(C)[C@@H]([C@H](C)CCOC(=O)NCCSC)CC[C@@H]23)[C@@]2(C)CC[C@@H](O)C[C@@H]12 [Example 140]
pEC50: 6.00 to 7.00 | Emax: 246%

CC[C@H]1[C@@H](O)[C@@H]2[C@H](CC[C@]3(C)[C@@H]([C@H](C)CCOC(=O)NC4(C)CC4)CC[C@@H]23)[C@@]2(C)CC[C@@H](O)C[C@@H]12 [Example 135]
pEC50: 6.00 to 7.00 | Emax: 224%

CC[C@H]1[C@@H](O)[C@@H]2[C@H](CC[C@]3(C)[C@@H]([C@H](C)CCOC(=O)NS(=O)(=O)c4cccc(OC)c4)CC[C@@H]23)[C@@]2(C)CC[C@@H](O)C[C@@H]12 [Example 86]
pEC50: 6.00 to 7.00 | Emax: 288%

CC[C@H]1[C@@H](O)[C@@H]2[C@H](CC[C@]3(C)[C@@H]([C@H](C)CCOC(=O)NC4CCCC4O)CC[C@@H]23)[C@@]2(C)CC[C@@H](O)C[C@@H]12 (some centres unmarked) [Example 195]
pEC50: > 7.00 | Emax: 288%

CC[C@H]1[C@@H](O)[C@@H]2[C@H](CC[C@]3(C)[C@@H]([C@H](C)CCOC(=O)NS(=O)(=O)C4CCCC4)CC[C@@H]23)[C@@]2(C)CC[C@@H](O)C[C@@H]12 [Example 47]
pEC50: > 7.00 | Emax: 321%

CC[C@H]1[C@@H](O)[C@@H]2[C@H](CC[C@]3(C)[C@@H]([C@H](C)COC(=O)NS(=O)(=O)c4ccc(-n5cccn5)cc4)CC[C@@H]23)[C@@]2(C)CC[C@@H](O)C[C@@H]12 [Example 37]
pEC50: > 7.00 | Emax: 207%

CC[C@H]1[C@@H](O)[C@@H]2[C@H](CC[C@]3(C)[C@@H]([C@H](C)CCOC(=O)NS(=O)(=O)c4ccccn4)CC[C@@H]23)[C@@]2(C)CC[C@@H](O)C[C@@H]12 [Example 72]
pEC50: 5.00 to 6.00 | Emax: 305%

CC[C@H]1[C@@H](O)[C@@H]2[C@H](CC[C@]3(C)[C@@H]([C@H](C)CCCOC(=O)NS(=O)(=O)c4ccc5ccccc5c4)CC[C@@H]23)[C@@]2(C)CC[C@@H](O)C[C@@H]12 [Example 115]
pEC50: 6.00 to 7.00 | Emax: 376%

CC[C@H]1[C@@H](O)[C@@H]2[C@H](CC[C@]3(C)[C@@H]([C@H](C)CCOC(=O)NS(=O)(=O)c4ccc(OC(F)(F)F)cc4)CC[C@@H]23)[C@@]2(C)CC[C@@H](O)C[C@@H]12 [Example 53]
pEC50: > 7.00 | Emax: 411%

CC[C@H]1[C@@H](O)[C@@H]2[C@H](CC[C@]3(C)[C@@H]([C@H](C)CCOC(=O)N4CC[C@H](CO)C4)CC[C@@H]23)[C@@]2(C)CC[C@@H](O)C[C@@H]12 [Example 211]
pEC50: > 7.00 | Emax: 198%

CC[C@H]1[C@@H](O)[C@@H]2[C@H](CC[C@]3(C)[C@@H]([C@H](C)COC(=O)NS(=O)(=O)c4ccc(Oc5ccccc5)cc4)CC[C@@H]23)[C@@]2(C)CC[C@@H](O)C[C@@H]12 [Example 31]
pEC50: 6.00 to 7.00 | Emax: 207%

CC[C@H]1[C@@H](O)[C@@H]2[C@H](CC[C@]3(C)[C@@H]([C@H](C)COC(=O)NS(=O)(=O)c4ccc(N5C6CCC5CC6)cc4)CC[C@@H]23)[C@@]2(C)CC[C@@H](O)C[C@@H]12 [Example 44-a]
pEC50: > 7.00 | Emax: 182%

CC[C@H]1[C@@H](O)[C@@H]2[C@H](CC[C@]3(C)[C@@H]([C@H](C)CCOC(=O)NS(=O)(=O)c4ccc(OC)c(OC)c4)CC[C@@H]23)[C@@]2(C)CC[C@@H](O)C[C@@H]12 [Example 87]
pEC50: 6.00 to 7.00 | Emax: 274%

CC[C@H]1[C@@H](O)[C@@H]2[C@H](CC[C@]3(C)[C@@H]([C@H](C)CCOC(=O)N4CCC[C@@H]4CO)CC[C@@H]23)[C@@]2(C)CC[C@@H](O)C[C@@H]12 [Example 209]
pEC50: > 7.00 | Emax: 199%

CC[C@H]1[C@@H](O)[C@@H]2[C@H](CC[C@]3(C)[C@@H]([C@H](C)CCCOC(=O)NS(=O)(=O)C(C)C)CC[C@@H]23)[C@@]2(C)CC[C@@H](O)C[C@@H]12 [Example 114]
pEC50: 6.00 to 7.00 | Emax: 345%

CC[C@H]1[C@@H](O)[C@@H]2[C@H](CC[C@]3(C)[C@@H]([C@H](C)CCOC(=O)NS(=O)(=O)c4ccc(C(C)(C)C(=O)OC)cc4)CC[C@@H]23)[C@@]2(C)CC[C@@H](O)C[C@@H]12 [Example 55]
pEC50: > 7.00 | Emax: 258%

CC[C@H]1[C@@H](O)[C@@H]2[C@H](CC[C@]3(C)[C@@H]([C@H](C)CCOC(=O)N4CCC(CO)CC4)CC[C@@H]23)[C@@]2(C)CC[C@@H](O)C[C@@H]12 [Example 202]
pEC50: 6.00 to 7.00 | Emax: 393%

CC[C@H]1[C@@H](O)[C@@H]2[C@H](CC[C@]3(C)[C@@H]([C@H](C)CCCOC(=O)NC4CCCCC4)CC[C@@H]23)[C@@]2(C)CC[C@@H](O)C[C@@H]12 [Example 126]
pEC50: 5.00 to 6.00 | Emax: 187%

CC[C@H]1[C@@H](O)[C@@H]2[C@H](CC[C@]3(C)[C@@H]([C@H](C)CCOC(=O)NS(=O)(=O)c4ccccc4F)CC[C@@H]23)[C@@]2(C)CC[C@@H](O)C[C@@H]12 [Example 71]
pEC50: 6.00 to 7.00 | Emax: 317%

CC[C@H]1[C@@H](O)[C@@H]2[C@H](CC[C@]3(C)[C@@H]([C@H](C)CCOC(=O)N4CCC(C(N)=O)CC4)CC[C@@H]23)[C@@]2(C)CC[C@@H](O)C[C@@H]12 [Example 171]
pEC50: 6.00 to 7.00 | Emax: 179%

CC[C@H]1[C@@H](O)[C@@H]2[C@H](CC[C@]3(C)[C@@H]([C@H](C)COC(=O)NS(=O)(=O)c4ccc(N5CCC5)nc4)CC[C@@H]23)[C@@]2(C)CC[C@@H](O)C[C@@H]12 [Example 44-c]
pEC50: > 7.00 | Emax: 183%

CC[C@H]1[C@@H](O)[C@@H]2[C@H](CC[C@]3(C)[C@@H]([C@H](C)CCCOC(=O)NCc4ccccc4)CC[C@@H]23)[C@@]2(C)CC[C@@H](O)C[C@@H]12 [Example 124]
pEC50: 6.00 to 7.00 | Emax: 225%

CC[C@H]1[C@@H](O)[C@@H]2[C@H](CC[C@]3(C)[C@@H]([C@H](C)CCOC(=O)NS(=O)(=O)c4ccc(C(C)(C)C)s4)CC[C@@H]23)[C@@]2(C)CC[C@@H](O)C[C@@H]12 [Example 62]
pEC50: > 7.00 | Emax: 299%

CC[C@H]1[C@@H](O)[C@@H]2[C@H](CC[C@]3(C)[C@@H]([C@H](C)CCOC(=O)N4CC(CO)C4)CC[C@@H]23)[C@@]2(C)CC[C@@H](O)C[C@@H]12 [Example 214]
pEC50: > 7.00 | Emax: 194%

CC[C@H]1[C@@H](O)[C@@H]2[C@H](CC[C@]3(C)[C@@H]([C@H](C)CCOC(=O)NCC(C)(C)C)CC[C@@H]23)[C@@]2(C)CC[C@@H](O)C[C@@H]12 [Example 190]
pEC50: 6.00 to 7.00 | Emax: 410%

CC[C@H]1[C@@H](O)[C@@H]2[C@H](CC[C@]3(C)[C@@H]([C@H](C)CCCOC(=O)NS(=O)(=O)c4cccc(C(C)(C)C)c4)CC[C@@H]23)[C@@]2(C)CC[C@@H](O)C[C@@H]12 [Example 112]
pEC50: 6.00 to 7.00 | Emax: 123%

CC[C@H]1[C@@H](O)[C@@H]2[C@H](CC[C@]3(C)[C@@H]([C@H](C)CCOC(=O)NS(=O)(=O)c4ccc(Cl)cc4)CC[C@@H]23)[C@@]2(C)CC[C@@H](O)C[C@@H]12 [Example 61]
pEC50: > 7.00 | Emax: 270%

CC[C@H]1[C@@H](O)[C@@H]2[C@H](CC[C@]3(C)[C@@H]([C@H](C)COC(=O)NS(=O)(=O)c4ccc(-c5ccccc5)s4)CC[C@@H]23)[C@@]2(C)CC[C@@H](O)C[C@@H]12 [Example 10]
pEC50: > 7.00 | Emax: 259%

CC[C@H]1[C@@H](O)[C@@H]2[C@H](CC[C@]3(C)[C@@H]([C@H](C)CCOC(=O)NS(=O)(=O)N4CCOCC4)CC[C@@H]23)[C@@]2(C)CC[C@@H](O)C[C@@H]12 [Example 59]
pEC50: > 7.00 | Emax: 428%

CC[C@H]1[C@@H](O)[C@@H]2[C@H](CC[C@]3(C)[C@@H]([C@H](C)CCOC(=O)NC4CCCCC4)CC[C@@H]23)[C@@]2(C)CC[C@@H](O)C[C@@H]12 [Example 127]
pEC50: 6.00 to 7.00 | Emax: 308%

Source: patent US10457703B2, “Bile acid derivatives as FXR/TGR5 agonists and methods of use thereof” (ENANTA PHARMACEUTICALS, INC., priority 2015, dated 2019)
